Reference: patent US20250312338A1, “TREATMENT OF NEUROLOGICAL DISORDERS” (Praxis Precision Medicines, Inc., priority 2022, published 2025)
Values after ≈ are worked out from the molar mass of the structure shown. “Also recorded” adds a separate entry of the source. Like-named read-outs stand apart in the source and are kept apart here.

Experiments:
[1] = in vivo
Excerpt: (§2) This was a 2-part randomized, placebo-controlled Phase 1 trial in healthy participants aged 18-55 years. […] PD effects were examined on quantitative EEG (qEEG; resting and vigilant conditions) and stimulated EEG using auditory steady state response (ASSR). A total of 48 participants were enrolled; Part A, n=30; Part B, n=18.

healthy participants [2] = test: Phase 1 28-day trial (Part A 90 mg; Part B OXC + 120 mg), safety and tolerability; assay type: in vivo, human
Excerpt: as §2

[3] = Open-label study in DEE patients, pharmacokinetics (preliminary data); assay type: in vivo, human
Excerpt: The purpose of this study is to evaluate the safety and tolerability of Compound 1, to assess the effect of Compound 1 on the frequency of motor seizures, and to characterize the pharmacokinetics (PK) of oral suspension Compound 1 in patients with developmental and epileptic encephalopathies (DEE).
This is an open-label proof of concept study with 3 cohorts of DEE patients (SCN2A, SCN8A, and Tuberous Sclerosis Complex (TSC)) between 2 years old and 17 years old. There will be an 8-week screening period followed by a 16-week treatment period comprised of 8-week dose optimization period and 8-week maintenance period, and a 4-week safety follow-up period or roll-over into LTE. The rationale for 16-week treatment period is based on the current knowledge of Compound 1 pharmacokinetics, which is predicted to potentially take about 6 weeks to achieve 90% steady state. The 8-week dose optimization period allows for adjusting concomitant SCBs and the additional 8 weeks will allow for evaluation of tolerability and efficacy signal during the maintenance period.
Dosing will be guided by preclinical data (targeting concentration between EC50 and EC90 from MES model) and modeling from adult PK data, and duration of dose optimization phase will be predicated on adult PK data. During the dose optimization period, the dose adjustment will be as follows. […]

in vivo = conditions: male, CD-1, mouse
Method: (§3) Male CD-1 mice, 6-weeks old, were obtained from Vital River (Beijing, China). The average body weight was 25-35 g at the time the experiments were carried out. The mice were housed in groups of 3-5 under controlled conditions (temperature: 20-26° C.; humidity: 40-70%; air exchange rate: 10-15 cycles/hour; 12:12 light-dark cycle with lights on at 5:00 a.m.). Food and water were available ad libitum. The mice were acclimated to these conditions for 6 days before the start of the studies.
(§4) Dosing solutions were prepared on each experiment day. […] All solutions were protected from light. Samples from dosing solutions were stored at 4° C. Both compound and vehicle were dosed at 10 ml/kg.
(§5) The sLMA test was carried out over two days. 5 of 10 mice from each treatment group were tested on each day. All animals were marked on the tail with a permanent marker and weighed. Mice were randomly assigned into one of the four treatment groups. Animals were acclimated to the test room at least 30 minutes before the start of the experiment.
(§6) Possible side effects, such as overt sedation, were recorded just before the start of the sLMA test.
(§7) Each mouse was automatically tracked with overhead cameras using a 1-minute sampling window in an isolated chamber. Spontaneous locomotor activity was then analyzed offline using the Animal Behavior Video Tracking Analysis System (Ji Liang Software Technology Co., Ltd., Shanghai, China).
(§8) Locomotor status was defined as >2 mm of movement in every 200 ms (Frame-rate recorded was 20 frames/second. Locomotor status was identified in every 4 frame-to-frame interval. The accumulated shift of tracking spots that exceeded 2 mm in every 4 frame intervals was identified as a locomotor epoch). Traveling distance was calculated automatically from all the locomotion epochs and analyzed.
(§9) All mice were anesthetized with CO2. Then, terminal plasma and brain tissue samples were collected from animals in the drug treatment groups. 500 μL whole blood was collected via cardiac puncture and placed in tubes with 10 μL EDTAK2. The tubes were then placed in wet ice until centrifuged at 2000 g for 5 minutes at 4° C. The supernatant plasma was pipetted into Eppendorf tubes.
(§10) Data are presented as mean±s.e.m., and p<0.05 was regarded as statistically significant.
(§11) Calculating TD50 and TC50 values Dose-response and concentration-response curves for plasma and brain were fitted for each end-point using GraphPad Prism. From these fitted curves, TD50 and TC50 values were calculated.
(§12) Compound 1 and CBZ were prepared individually in 35% HPBCD. […] All solutions were dosed at 10 mL/kg. Just before the start of the sLMA test, possible side effects such as overt sedation were recorde.

[4] = Half-life of Compound 1 as stated in dosing guidance of Example 13; conditions: human, in vivo
male CD-1 mice = test: Spontaneous locomotor activity (sLMA) test
Method: as §3, §4, §5, §6, §7, §8, §9, §10, §11, §12

[5] = Phase 1 28-day trial (Part A 90 mg; Part B OXC + 120 mg), pharmacokinetics
Excerpt: as §2

healthy participants [6] = test: Phase 1 single/multiple ascending dose and food effect trial, safety and tolerability; assay type: in vivo, human; conditions: whole trial
Method: (§1) This was a 3-part Phase 1 clinical trial in healthy participants aged 18-55 years. Parts A and B were randomized, placebo-controlled and evaluated the effects of single (2.5-150 mg) and multiple (30-120 mg, 14 days QD (every day)) ascending oral doses of Compound 1, respectively. Part C was an open-label, randomized, crossover design evaluating the PK of a single oral dose (90 mg) in fasted and fed states. In Parts A (n=64) and B (n=32), participants were randomized 3:1 to Compound 1 or placebo (n=8/cohort). In Part C (n=16), participants were randomized 1:1 to one of two treatment sequences receiving a single dose of 90 mg Compound 1 in the fed (following a high-fat/high calorie meal) or fasted (>10 hours after the last, and 4 hours before the next, meal) state.

[7] = Phase 1 single/multiple ascending dose and food effect trial, pharmacokinetics; assay type: in vivo, human; conditions: for Tmax: human, plasma
Method: as §1

human NaV1.6 = target: T1, human NaV1.6 (Homo sapiens, UniProt Q9UQD0); test: Peak INa use dependent block (UDB-10 Hz), PatchXpress patch clamp; assay type: cell-based; conditions: hNaV1.6
T1 construct: HEK-293 cell lines stably expressing either human NaV1.6 (NP_055006); expressed in transfected cells
T1 sequence (Q9UQD0 whole entry): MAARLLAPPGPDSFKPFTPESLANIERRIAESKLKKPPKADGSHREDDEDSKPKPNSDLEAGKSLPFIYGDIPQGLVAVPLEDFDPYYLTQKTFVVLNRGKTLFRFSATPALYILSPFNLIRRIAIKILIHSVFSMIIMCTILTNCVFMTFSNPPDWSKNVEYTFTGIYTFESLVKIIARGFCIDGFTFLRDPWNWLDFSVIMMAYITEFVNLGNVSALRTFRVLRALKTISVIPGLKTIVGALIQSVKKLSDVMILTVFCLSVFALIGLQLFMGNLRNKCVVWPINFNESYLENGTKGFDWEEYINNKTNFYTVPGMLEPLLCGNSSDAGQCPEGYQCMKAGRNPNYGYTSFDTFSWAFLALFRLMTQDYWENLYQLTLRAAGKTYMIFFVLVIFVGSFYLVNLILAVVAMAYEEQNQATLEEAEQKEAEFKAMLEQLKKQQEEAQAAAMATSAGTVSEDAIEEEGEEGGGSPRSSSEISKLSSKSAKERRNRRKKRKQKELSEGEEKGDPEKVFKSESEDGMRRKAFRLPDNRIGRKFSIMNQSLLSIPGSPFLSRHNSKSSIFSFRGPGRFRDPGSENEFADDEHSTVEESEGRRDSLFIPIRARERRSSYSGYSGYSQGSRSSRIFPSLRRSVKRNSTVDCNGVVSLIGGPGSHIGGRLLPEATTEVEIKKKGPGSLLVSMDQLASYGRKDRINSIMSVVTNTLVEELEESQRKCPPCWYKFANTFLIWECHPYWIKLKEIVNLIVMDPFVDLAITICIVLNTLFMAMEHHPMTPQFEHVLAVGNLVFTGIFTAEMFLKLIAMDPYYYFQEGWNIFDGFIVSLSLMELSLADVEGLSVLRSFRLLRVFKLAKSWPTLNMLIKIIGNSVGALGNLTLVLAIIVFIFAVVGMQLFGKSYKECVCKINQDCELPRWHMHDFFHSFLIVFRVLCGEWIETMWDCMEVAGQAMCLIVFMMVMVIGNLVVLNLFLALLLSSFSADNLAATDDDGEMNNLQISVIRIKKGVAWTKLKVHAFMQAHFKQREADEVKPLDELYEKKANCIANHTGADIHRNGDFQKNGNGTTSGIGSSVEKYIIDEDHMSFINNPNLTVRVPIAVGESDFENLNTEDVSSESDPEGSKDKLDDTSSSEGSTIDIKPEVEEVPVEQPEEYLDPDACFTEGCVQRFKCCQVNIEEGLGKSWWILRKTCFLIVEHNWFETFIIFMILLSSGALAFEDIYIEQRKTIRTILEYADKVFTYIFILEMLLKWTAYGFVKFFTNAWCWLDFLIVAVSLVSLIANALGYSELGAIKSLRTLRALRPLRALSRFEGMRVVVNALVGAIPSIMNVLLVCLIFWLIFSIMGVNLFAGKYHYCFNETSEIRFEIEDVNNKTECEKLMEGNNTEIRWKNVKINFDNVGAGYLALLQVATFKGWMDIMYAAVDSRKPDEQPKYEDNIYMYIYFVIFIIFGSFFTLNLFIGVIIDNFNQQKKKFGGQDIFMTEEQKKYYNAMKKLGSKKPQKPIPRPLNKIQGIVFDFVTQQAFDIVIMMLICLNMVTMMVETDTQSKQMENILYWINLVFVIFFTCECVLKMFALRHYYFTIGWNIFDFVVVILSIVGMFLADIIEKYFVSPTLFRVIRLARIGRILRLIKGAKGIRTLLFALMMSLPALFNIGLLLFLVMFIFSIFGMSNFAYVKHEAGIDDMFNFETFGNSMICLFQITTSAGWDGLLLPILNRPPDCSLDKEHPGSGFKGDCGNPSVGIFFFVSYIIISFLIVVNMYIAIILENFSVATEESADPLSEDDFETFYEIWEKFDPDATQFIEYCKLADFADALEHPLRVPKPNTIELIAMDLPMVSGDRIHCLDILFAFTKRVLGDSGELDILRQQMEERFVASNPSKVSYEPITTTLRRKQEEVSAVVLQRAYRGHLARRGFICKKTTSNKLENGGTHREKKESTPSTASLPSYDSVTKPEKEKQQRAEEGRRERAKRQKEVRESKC

[8] = test system: MES-induced seizures in male CD-1 mice; test: Maximal electroshock seizure (MES) test; assay type: in vivo, mouse
Method: Food and water were available ad libitum.
VPA was prepared in saline (Vehicle 1). All solutions were protected from light. All compounds and vehicles were dosed at 10 ml/kg.
The MES test was carried out over two days with 6 of 12 mice from each treatment group being tested on each day. Mice were brought to the test room at least one hour before the start of the experiment.
A Grass S88x (Grass Technologies of Astro-Med, Inc., West Warwick, RI) Stimulus Isolation Unit (A385, WPI Inc., USA) was set to deliver a 50 mA square-wave stimulus, with a 0.8 second duration, a pulse width of 10 msec, and a frequency of 50 Hz. A pair of custom stainless steel electrodes were soaked in 0.2% Agar, and then the subject received bilateral transauricular stimulation through ear-clip electrodes. During the stimulation, mice were manually restrained. They were then released into the observation cage for convulsion observation for 60 seconds immediately after stimulation. Each mouse was observed continuously by individuals blinded to treatment conditions and results were recorded.
Anti-seizure assessment endpoints were: (1) latency of hindlimb tonic flexion; (2) latency of hindlimb tonic extension; (3) total #hindlimb tonic flexions; (4) total #hindlimb tonic extensions; (5) latency to death; and (6) mortality rate
From these fitted curves, ED50 and EC50 values were calculated.

NC(=O)N1c2ccccc2CC(O)c2ccccc21 (stereo not shown) [10-Hydroxycarbamezapine]
exposure when administered concomitantly with Compound 1 vs alone [1]: similar

NC(=O)N1c2ccccc2CC(=O)c2ccccc21 [Oxcarbazepine, reference compound]
patients in whom TEAEs were observed (healthy participants [2]; Part B, per arm): 75%
exposure when administered concomitantly with Compound 1 vs alone [1]: similar

CCOC(F)(F)c1nnc2cnc(-c3cnc(OCC(F)(F)F)c(F)c3)cn12 [Compound 1]
approach to steady state ([3]; after 28 days of once daily dosing and auto-titration): approaches steady state
Compound 1 exposures on Day 1 (after single dose) ([3]; first 12 DEE participants, preliminary): above therapeutic range; also recorded: above predicted therapeutic levels
EC50 (in vivo; plasma (free concentration), oral): 309 nM
half-life [4]: ~96 h
effect on locomotor function (male CD-1 mice; 10 mg/kg): no effect
total traveling distance in the 30-minute sLMA test (male CD-1 mice; 20 and 40 mg/kg p.o.): significantly reduced; also recorded: reductions
TC50 (free brain) Tolerability (sLMA) (male CD-1 mice; free brain concentration): 69.7 nM
TC50 in brain, free (sLMA) (male CD-1 mice; free brain concentration): 69.7 nM
TC50 in plasma, free (sLMA) (male CD-1 mice; free plasma concentration): 308.9 nM
TC50 in brain (sLMA) (male CD-1 mice; total brain concentration): 1899 ng/g
TC50 in plasma (sLMA) (male CD-1 mice; total plasma concentration): 1.553 µg/mL (≈ 3.81 µM)
increase in Compound 1 concentrations over the human-equivalent dose required for efficacy in preclinical MES models [5]: 13 fold
approach to steady state ([5]; 90 mg for 28 days): approached steady state
TEAEs that were mild (healthy participants [6]): > 92%
TEAEs mild or moderate (healthy participants [2]; Part A): 100%
TEAEs moderate in severity (healthy participants [2]; Part A): 29%
tolerability in healthy adults (healthy participants [2]; Part A, 90 mg): well tolerated
TEAEs mild in severity (healthy participants [2]; Part A, 90 mg QD 28 days vs placebo, 35 TEAEs across 13 participants): 71%
review of ALT/AST increases and rhabdomyolysis (healthy participants [2]; Part B): did not identify a causal association
increase in AUC, fed vs fasted ([7]; 90 mg single dose): 14%
increase in Cmax, fed vs fasted ([7]; 90 mg single dose): 9%
Tmax ([7]; oral, 90 mg, 90 mg single dose, fasted, read-out: tmax, fasted state): 2.5 h
Tmax ([7]; oral, 90 mg, 90 mg single dose, fed, read-out: tmax, fed state): 4 h
Tmax ([7]; po, healthy adults, read-out: time to observed maximum concentration (tmax)): 2 to 3 h
exposure vs dose ([7]; over the evaluated dose range): increased dose proportionally

NC(=O)O[C@@H](Cn1ncnn1)c1ccccc1Cl [Cenobamate]
Ratio to Peak INa (TB) (TB / UDB-10 Hz) (human NaV1.6): 2.3

Nc1nnc(-c2cccc(Cl)c2Cl)c(N)n1 [Lamotrigine]
EC50 (in vivo; in vivo): 20500 nM
use-dependent block of peak INa (in words) (human NaV1.6; stimulation frequency 10 Hz): not observed
mice protected from MES-induced tonic hindlimb seizures ([8]; 10 mg/kg): eight of 12

NC(=O)N1c2ccccc2C=Cc2ccccc21 [Carbamazepine]
EC50 (in vivo; in vivo): 19000 nM
use-dependent block of peak INa (in words) (human NaV1.6; frequency increased to 30 Hz or 50 Hz): could be observed
use-dependent block of peak INa (in words) (human NaV1.6; stimulation frequency 10 Hz): not observed
sLMA at the dose required for complete seizure prevention (male CD-1 mice; mouse, in vivo): significant reduction
mice protected from MES-induced tonic hindlimb seizures ([8]; 30 mg/kg): all mice
